Calls of active or inactive are those of the source. The calls are words filed in the database; no cut-off is given here.
Assays:
[1] = target: Mast/stem cell growth factor receptor Kit (Homo sapiens) (UniProt P10721); assay: Inhibition of c-Kit in human PANC1 cells assessed as reduction in Erk phosphorylation at 50 uM; assay type: cell-based
OVCAR-3 [2] = assay: Antitumor activity against human OVCAR3 cells xenografted in po dosed athymic nude mouse assessed as reduction in tumor growth administered as qd for 28 days; assay type: functional, organism-based
MIA PaCa-2 [3] = assay: Antitumor activity against human MIAPaCa2 cells xenografted in athymic nude mouse assessed as reduction in tumor growth at 2.5 to 5 mg/kg, iv administered every 3 days for 28 days; assay type: functional, organism-based
TT = assay: Antitumor activity against human TT cells xenografted in ip dosed athymic nude mouse assessed as reduction in tumor growth administered as qd for 2 weeks; assay type: functional, organism-based
A549 [4] = assay: Antitumor activity against human A549 cells xenografted in athymic nude mouse assessed as reduction in tumor growth at 50 mg/kg, po qd administered for 21 days in presence of 30 mg/kg carboplatin/ 20 mg/kg taxol; assay type: functional, organism-based
Canis familiaris = assay: In vivo inhibition of Rad51 expression in po dosed Beagle dog skin administered daily for 28 days measured post last dose by immunohistochemistry staining based assay; assay type: functional, organism-based; conditions: Canis lupus familiaris
HT-29 [5] = assay: Suppression of ionizing radiation-induced Rad51 expression in human HT-29 cells pretreated with compound followed by ionizing radiation by Western blot analysis; assay type: functional, cell-based
OVCAR-3 [6] = assay: Cytostatic activity against human OVCAR3 cells assessed as reduction in cell proliferation; assay type: functional, cell-based
HT-29 [7] = assay: Suppression of cisplatin-induced Rad51 expression in human HT-29 cells xenografted in in-vivo model by Western blot analysis; assay type: functional, cell-based
SF-767 [8] = assay: Cytotoxicity against human SF-767 cells assessed as cell death at 1 uM after 24 hrs by MTS assay; assay type: functional, cell-based
A549 [9] = assay: Antitumor activity against human A549 cells xenografted in athymic nude mouse assessed as reduction in tumor growth at 50 mg/kg, po qd administered for 21 days in presence of 30 mg/kg carboplatin; assay type: functional, organism-based
MIA PaCa-2 [10] = assay: Antitumor activity against human MIAPaCa2 cells xenografted in athymic nude mouse assessed as reduction in tumor growth at 5 mg/kg, iv administered every 7 days for 28 days; assay type: functional, organism-based
SBcl2 = assay: Antitumor activity against human SBcl2 cells xenografted in ip dosed athymic nude mouse assessed as reduction in tumor growth administered as qd for 5 days; assay type: functional, organism-based
SF-767 [11] = assay: Cytotoxicity against human SF-767 cells assessed as cell death at 1 uM in presence of […] ionizing radiation after 24 hrs by MTS assay; assay type: functional, cell-based
A549 [12] = assay: Suppression of Rad51 expression in human A549 cells at 0.71 to 3.82 uM after 24 hrs by probing blot analysis; assay type: functional, cell-based

Chain of Mast/stem cell growth factor receptor Kit (Homo sapiens) (P10721 whole entry): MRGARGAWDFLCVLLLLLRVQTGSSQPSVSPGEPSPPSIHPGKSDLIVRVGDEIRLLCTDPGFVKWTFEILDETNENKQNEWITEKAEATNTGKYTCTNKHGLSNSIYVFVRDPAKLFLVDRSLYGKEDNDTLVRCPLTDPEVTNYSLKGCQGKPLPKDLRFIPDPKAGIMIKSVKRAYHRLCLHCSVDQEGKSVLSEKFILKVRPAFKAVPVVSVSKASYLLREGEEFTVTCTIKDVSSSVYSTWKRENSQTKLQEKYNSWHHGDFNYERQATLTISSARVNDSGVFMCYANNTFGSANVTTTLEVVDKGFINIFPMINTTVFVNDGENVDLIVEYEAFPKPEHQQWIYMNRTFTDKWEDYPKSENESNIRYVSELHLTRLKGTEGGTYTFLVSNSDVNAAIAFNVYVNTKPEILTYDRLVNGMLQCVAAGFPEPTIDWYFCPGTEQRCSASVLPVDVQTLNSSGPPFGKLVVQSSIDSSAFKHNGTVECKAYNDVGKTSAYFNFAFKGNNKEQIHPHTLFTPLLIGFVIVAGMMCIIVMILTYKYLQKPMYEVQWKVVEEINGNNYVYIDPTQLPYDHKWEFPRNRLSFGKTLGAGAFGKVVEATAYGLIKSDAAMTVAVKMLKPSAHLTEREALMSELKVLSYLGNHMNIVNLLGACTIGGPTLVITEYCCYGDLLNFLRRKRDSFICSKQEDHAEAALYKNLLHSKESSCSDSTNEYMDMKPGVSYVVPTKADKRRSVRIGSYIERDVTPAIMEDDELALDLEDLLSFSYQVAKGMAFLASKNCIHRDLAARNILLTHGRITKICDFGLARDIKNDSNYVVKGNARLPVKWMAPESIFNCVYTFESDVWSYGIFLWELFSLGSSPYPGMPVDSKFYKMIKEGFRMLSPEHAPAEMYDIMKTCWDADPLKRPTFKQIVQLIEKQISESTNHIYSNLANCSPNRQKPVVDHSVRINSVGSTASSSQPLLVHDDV

SMILES	inhibition [1]	Activity (OVCAR-3 [2])	Activity (MIA PaCa-2 [3])	Activity (TT)	Activity (A549 [4])	inhibition (Canis familiaris)	inhibition (HT-29 [5])	Activity (OVCAR-3 [6])	inhibition (HT-29 [7])	Activity (SF-767 [8])	Activity (A549 [9])	Activity (MIA PaCa-2 [10])	Activity (SBcl2)	Activity (SF-767 [11])	Activity (A549 [12])
COc1cccc(-c2cc(=O)c3ccccc3o2)c1N	Active														
S=C(NCc1ccc2c(c1)OCO2)N1CCN(c2ncnc3c2oc2ccccc23)CC1	Active	Dose-dependent effect	Active	Dose-dependent effect	Active	Dose-dependent effect	Active	Active	Active	Active	Active	Active	Active	Active	inactive
